Laboratory results taken from ChEMBL document CHEMBL1275529, “Improved antimicrobial activity of linezolid against vancomycin-intermediate Staphylococcus aureus” (2008).

Legend:
Staphylococcus aureus [1] = assay: Antibacterial activity against vancomycin-susceptible Staphylococcus aureus NJ after 24 hrs by Etest method; assay type: functional
Staphylococcus aureus [2] = assay: Antibacterial activity against vancomycin-susceptible Staphylococcus aureus MI after 24 hrs by Etest method; assay type: functional
Staphylococcus aureus [3] = assay: Antibacterial activity against vancomycin-intermediate Staphylococcus aureus BR5-1 after 24 hrs by Etest method; assay type: functional; settings: BR5-1, 24 h
Staphylococcus aureus [4] = assay: Antibacterial activity against vancomycin-intermediate Staphylococcus aureus BR4 after 24 hrs by Etest method; assay type: functional; settings: BR4, 24 h
Staphylococcus aureus [5] = assay: Antibacterial activity against vancomycin-intermediate Staphylococcus aureus BR3 after 24 hrs by Etest method; assay type: functional; settings: BR3, 24 h
Staphylococcus aureus [6] = assay: Antibacterial activity against vancomycin-intermediate Staphylococcus aureus BR2 after 24 hrs by Etest method; assay type: functional; settings: BR2, 24 h
Staphylococcus aureus [7] = assay: Antibacterial activity against vancomycin-intermediate Staphylococcus aureus BR1 after 24 hrs by Etest method; assay type: functional; settings: BR1, 24 h
Staphylococcus aureus [8] = assay: Antibacterial activity against vancomycin-intermediate Staphylococcus aureus 28160 after 24 hrs by Etest method; assay type: functional; settings: Staphylococcus aureus, 28160, 24 h
Staphylococcus aureus [9] = assay: Antibacterial activity against vancomycin-intermediate Staphylococcus aureus LIM2 after 24 hrs by Etest method; assay type: functional; settings: LIM2, 24 h
Staphylococcus aureus [10] = assay: Antibacterial activity against vancomycin-intermediate Staphylococcus aureus 99/3700-W after 24 hrs by Etest method; assay type: functional
Staphylococcus aureus [11] = assay: Antibacterial activity against vancomycin-intermediate Staphylococcus aureus 99/3759-V after 24 hrs by Etest method; assay type: functional
Staphylococcus aureus [12] = assay: Antibacterial activity against vancomycin-intermediate Staphylococcus aureus NJ after 24 hrs by Etest method; assay type: functional
Staphylococcus aureus [13] = assay: Antibacterial activity against vancomycin-intermediate Staphylococcus aureus MI after 24 hrs by Etest method; assay type: functional
Staphylococcus aureus [14] = assay: Antibacterial activity against vancomycin-intermediate Staphylococcus aureus Mu50 after 24 hrs by Etest method; assay type: functional; settings: Mu50, 24 h
Staphylococcus aureus [15] = assay: Antibacterial activity against vancomycin-susceptible Staphylococcus aureus AMC11094 after 24 hrs by Etest method; assay type: functional; settings: AMC11094, 24 h
Staphylococcus aureus [16] = assay: Antibacterial activity against vancomycin-susceptible Staphylococcus aureus 99/3759-V after 24 hrs by Etest method; assay type: functional
Staphylococcus aureus [17] = assay: Antibacterial activity against vancomycin-susceptible Staphylococcus aureus 99/3700-W after 24 hrs by Etest method; assay type: functional
Staphylococcus aureus [18] = assay: Antibacterial activity against vancomycin-susceptible Staphylococcus aureus 28160 after 24 hrs by Etest method; assay type: functional; settings: Staphylococcus aureus, 28160, 24 h
Staphylococcus aureus [19] = assay: Antibacterial activity against vancomycin-susceptible Staphylococcus aureus BR1 after 24 hrs by Etest method; assay type: functional; settings: BR1, 24 h
Staphylococcus aureus [20] = assay: Antibacterial activity against vancomycin-susceptible Staphylococcus aureus BR4 after 24 hrs by Etest method; assay type: functional; settings: BR4, 24 h
Staphylococcus aureus [21] = assay: Antibacterial activity against vancomycin-susceptible Staphylococcus aureus BR5-1 after 24 hrs by Etest method; assay type: functional; settings: BR5-1, 24 h
Staphylococcus aureus [22] = assay: Antibacterial activity against vancomycin-intermediate Staphylococcus aureus Mu50 phenotypic revertant after 24 hrs by Etest method; assay type: functional; settings: Mu50, 24 h
Staphylococcus aureus [23] = assay: Antibacterial activity against vancomycin-intermediate Staphylococcus aureus MI phenotypic revertant after 24 hrs by Etest method; assay type: functional
Staphylococcus aureus [24] = assay: Antibacterial activity against vancomycin-intermediate Staphylococcus aureus 99/3759-V phenotypic revertant after 24 hrs by Etest method; assay type: functional
Staphylococcus aureus [25] = assay: Antibacterial activity against vancomycin-intermediate Staphylococcus aureus 99/3700-W phenotypic revertant after 24 hrs by Etest method; assay type: functional
Staphylococcus aureus [26] = assay: Antibacterial activity against vancomycin-intermediate Staphylococcus aureus LIM2 phenotypic revertant after 24 hrs by Etest method; assay type: functional; settings: LIM2, 24 h
Staphylococcus aureus [27] = assay: Antibacterial activity against vancomycin-intermediate Staphylococcus aureus BR1 phenotypic revertant after 24 hrs by Etest method; assay type: functional; settings: BR1, 24 h
Staphylococcus aureus [28] = assay: Antibacterial activity against vancomycin-intermediate Staphylococcus aureus BR5-1 phenotypic revertant after 24 hrs by Etest method; assay type: functional; settings: BR5-1, 24 h
Staphylococcus aureus [29] = assay: Antibacterial activity against vancomycin-susceptible Staphylococcus aureus N315-LR5-P1 assessed as inhibition of bacterial growth in Mueller-Hinton broth medium; assay type: functional
Staphylococcus aureus [30] = assay: Antibacterial activity against vancomycin-susceptible Staphylococcus aureus N315-LR5-P1 assessed as inhibition of bacterial growth in brain heart infusion broth medium; assay type: functional
Staphylococcus aureus [31] = assay: Antibacterial activity against vancomycin-susceptible Staphylococcus aureus N315-LR5-P1-1 assessed as inhibition of bacterial growth in Mueller-Hinton broth medium; assay type: functional
Staphylococcus aureus [32] = assay: Antibacterial activity against vancomycin-susceptible Staphylococcus aureus N315-LR5-P1-3 assessed as inhibition of bacterial growth in Mueller-Hinton broth medium; assay type: functional
Staphylococcus aureus [33] = assay: Antibacterial activity against vancomycin-susceptible Staphylococcus aureus N315-LR5-P1-4 assessed as inhibition of bacterial growth in Mueller-Hinton broth medium; assay type: functional
Staphylococcus aureus [34] = assay: Antibacterial activity against vancomycin-susceptible Staphylococcus aureus N315-LR5-P1-4 assessed as inhibition of bacterial growth in brain heart infusion broth medium; assay type: functional; settings: N315-LR5-P1-4, Brain
Staphylococcus aureus [35] = assay: Antibacterial activity against vancomycin-susceptible Staphylococcus aureus Mu50 after 24 hrs by Etest method; settings: Mu50, 24 h
Staphylococcus aureus [36] = assay: Antibacterial activity against vancomycin-intermediate Staphylococcus aureus AMC11094 after 24 hrs by Etest method; settings: AMC11094, 24 h
Staphylococcus aureus [37] = assay: Antibacterial activity against vancomycin-intermediate Staphylococcus aureus IL after 24 hrs by Etest method
Staphylococcus aureus [38] = assay: Antibacterial activity against vancomycin-intermediate Staphylococcus aureus PC after 24 hrs by Etest method
Staphylococcus aureus [39] = assay: Antibacterial activity against vancomycin-intermediate Staphylococcus aureus NJ phenotypic revertant after 24 hrs by Etest method
Staphylococcus aureus [40] = assay: Antibacterial activity against vancomycin-susceptible Staphylococcus aureus N315-LR5-P1-2 assessed as inhibition of bacterial growth in brain heart infusion broth medium; settings: N315-LR5-P1-2, Brain
Staphylococcus aureus [41] = assay: microbe, parasite or virus in culture; settings: Staphylococcus aureus, 28160, 24 h
Description: Antibacterial activity against vancomycin-intermediate Staphylococcus aureus 28160 phenotypic revertant after 24 hrs by Etest method

Measured: MIC

CC(=O)NC[C@H]1CN(c2ccc(N3CCOCC3)c(F)c2)C(=O)O1 [LINEZOLID]
3 µg/mL: Staphylococcus aureus [1] | Staphylococcus aureus [2] | Staphylococcus aureus [15] | Staphylococcus aureus [16] | Staphylococcus aureus [17] | Staphylococcus aureus [18] | Staphylococcus aureus [20] | Staphylococcus aureus [21] | Staphylococcus aureus [28] | Staphylococcus aureus [29] | Staphylococcus aureus [30]
0.38 µg/mL: Staphylococcus aureus [14]
2.5 µg/mL: Staphylococcus aureus [31]
1 µg/mL: Staphylococcus aureus [5] | Staphylococcus aureus [6] | Staphylococcus aureus [9] | Staphylococcus aureus [10] | Staphylococcus aureus [11]
1.75 µg/mL: Staphylococcus aureus [32]
1.25 µg/mL: Staphylococcus aureus [7] | Staphylococcus aureus [12] | Staphylococcus aureus [25]
not listed: Staphylococcus aureus [35] | Staphylococcus aureus [36] | Staphylococcus aureus [37] | Staphylococcus aureus [38] | Staphylococcus aureus [39] | Staphylococcus aureus [40] | Staphylococcus aureus [41]
1.5 µg/mL: all other assays above

CN[C@H](CC(C)C)C(=O)N[C@H]1C(=O)N[C@@H](CC(N)=O)C(=O)N[C@H]2C(=O)N[C@H]3C(=O)N[C@H](C(=O)N[C@H](C(=O)O)c4cc(O)cc(O)c4-c4cc3ccc4O)[C@H](O)c3ccc(c(Cl)c3)Oc3cc2cc(c3O[C@@H]2O[C@H](CO)[C@@H](O)[C@H](O)[C@H]2O[C@H]2C[C@](C)(N)[C@H](O)[C@H](C)O2)Oc2ccc(cc2Cl)[C@H]1O [VANCOMYCIN]
8 µg/mL: Staphylococcus aureus [5] | Staphylococcus aureus [12] | Staphylococcus aureus [13] | Staphylococcus aureus [22] | Staphylococcus aureus [24]
1.5 µg/mL: Staphylococcus aureus [17] | Staphylococcus aureus [19] | Staphylococcus aureus [20]
1.25 µg/mL: Staphylococcus aureus [2] | Staphylococcus aureus [21] | Staphylococcus aureus [30] | Staphylococcus aureus [31]
2.5 µg/mL: Staphylococcus aureus [35] | Staphylococcus aureus [32]
0.75 µg/mL: Staphylococcus aureus [29]
6 µg/mL: Staphylococcus aureus [4] | Staphylococcus aureus [6] | Staphylococcus aureus [7] | Staphylococcus aureus [36] | Staphylococcus aureus [37] | Staphylococcus aureus [38] | Staphylococcus aureus [14]
3 µg/mL: Staphylococcus aureus [1] | Staphylococcus aureus [25] | Staphylococcus aureus [27] | Staphylococcus aureus [40] | Staphylococcus aureus [33] | Staphylococcus aureus [41]
5 µg/mL: Staphylococcus aureus [3] | Staphylococcus aureus [11] | Staphylococcus aureus [39] | Staphylococcus aureus [34]
